# How the values were obtained:
# Assay in all cases: area under concentration-response curve (viability) (AUC (a.u.)); higher = less active
# Settings in all cases: 48 h
# [1] = test system: CU-ACC1
# Outline: (§1)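 Three adrenocortical carcinoma cell lines were seeded at 500–1,000 cells/well in 5 µL medium in 1,536-well plates. 23 nL of each MIPE 5.0 library compound was added at 11 concentrations. After 48 h (per the protocol name), CellTiter-Glo was added for 15 minutes at room temperature and luminescence was read. Signals were normalised per plate to vehicle and empty-well controls. AC50 and area under the curve came from fitted concentration-response curves, keeping only inhibitory or non-responding curve classes.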
# [2] = test system: CU-ACC2
# Outline: as §1
# [3] = test system: NCI-H295R
# Outline: as §1
Structure (SMILES),area under concentration-response curve [1],area under concentration-response curve [2],area under concentration-response curve [3]
C\C1=C(/C)C(=O)\C(=C(\C)C1=O)C(CCCCCC(O)=O)C2=CC=CC=C2 (configuration not stated),545,613,550
COc1cc(CNC(=O)CCCC/C=C/C(C)C)ccc1O,542,653,599
CC(C)Cn1cnc2c(N)nc3ccccc3c21,640,683,630
CC(=O)NCCC(=O)N[C@@H](CCC(N)=O)C(=O)N[C@@H](CO)C(=O)N[C@@H](CCC(N)=O)C(=O)N[C@@H](CCC(N)=O)C(=O)N[C@H](C(=O)N[C@@H](Cc1ccccc1)C(=O)N[C@]1(C)CCCCCC/C=C\CCC[C@@](C)(C(=O)N[C@@H](CCC(N)=O)C(=O)N[C@@H](CC(N)=O)C(N)=O)NC(=O)[C@H](CC(C)C)NC(=O)[C@H](CC(C)C)NC(=O)[C@@H](CCCNC(=N)N)NC(=O)[C@H](Cc2c[nH]c3ccccc23)NC(=O)[C@H](CC(C)C)NC(=O)[C@H](CC(N)=O)NC1=O)[C@H](C)O,425,575,546
COc1ccc2cc([C@H](C)C(=O)O)ccc2c1,503,510,524
COC12C(COC(N)=O)\C3=C(/N1CC4C2N4C)C(=O)C(=C(N)/C3=O)\C (configuration not stated),506,544,507
CC(C)C[C@H](CC(=O)O)C(=O)N[C@@H](Cc1c[nH]c2ccccc12)C(=O)N[C@@H](C)c1ccccc1,433,622,577
N#CC1(c2ccc(NC(=O)c3cccnc3NCc3ccncc3)cc2)CCCC1,547,531,545
CN1\C(=C(\O)C2=C(C=CS2)[S+]1([O-])=O)C(=O)NC3=CC=CC=N3,548,616,573
Cc1c(C)c2c(c(C)c1O)CCC(C)(COc1ccc(CC3SC(=O)NC3=O)cc1)O2 (configuration not stated),369,511,492
CN1C2CCC1CC(OC(=O)C(CO)c1ccccc1)C2 (configuration not stated),408,396,396
COC(c1ccccc1)(c1ccccc1)[C@H](Oc1nc(C)cc(C)n1)C(=O)O,531,586,578
COc1ccc(/C=C/C(=O)Nc2ccccc2C(=O)O)cc1OC,439,517,496
CC(C)(Sc1cc(C(C)(C)C)c(O)c(C(C)(C)C)c1)Sc1cc(C(C)(C)C)c(O)c(C(C)(C)C)c1,550,652,601
CCC(CC)CC1(C(=O)Nc2ccccc2SC(=O)C(C)C)CCCCC1,519,593,537
NC(=O)c1cccc(N)c1,582,656,595
CCN1\C=C(C(O)=O)/C(=O)C2=C1C(=C(N3CCNC(C)C3)C(=C2)F)F (configuration not stated),577,674,605
CCOc1ccccc1N/N=C1/C(=O)N(c2nc(-c3ccccc3)cs2)N=C1C,569,639,570
CCN1C(=O)\C(=C/C2=CN=C(NC3=CC=C(C=C3)N4CCN(C)CC4)N=C12)C5=C(Cl)C=C(C=C5)C6=CN=CS6,562,604,568
CC1=CC(=C(O)C(=C1C\C2=N\CCN2)C)C(C)(C)C,515,579,496

Structure (SMILES),area under concentration-response curve [1],area under concentration-response curve [2],area under concentration-response curve [3]
Cc1noc(-c2ccc(-c3ccc(C4(C(=O)O)CC4)cc3)cc2)c1NC(=O)O[C@H](C)c1ccccc1,485,446,526
C[S+](=O)([O-])c1ccc(-c2nnc(/C=C/c3nnc(-c4ccc(C#N)cc4)o3)n2-c2ccccc2Cl)nc1,537,603,524
CCCCNc1cc(C(=O)O)cc([S+](N)(=O)[O-])c1Oc1ccccc1,505,596,553
FC1=CC=C(C=C1)N2/C=C\C=C(C(=O)NC3=CC=C(OC4=C5C=C[NH]C5=NC=C4)C(=C3)F)/C2=O,588,616,535
CC1=CC=CC=C1N2\C(=N/C3=C(C(=CC=C3)C)C2=O)C[N]4C=NC5=C4N=CN=C5N,555,643,583
O=C(Nc1ccccc1)Nc1ccc(-c2ccc(C(=O)[C@@H]3CCC[C@H]3C(=O)O)cc2)cc1,481,472,441
O=C1\C=C/C[C@@H]2[C@H]3CCCN4CCC[C@@H](CN12)[C@@H]34,541,509,546
Nc1ncnc2ccccc12,534,633,566
Cn1c(Nc2ccc(C(F)(F)F)cc2)nc2cc(Oc3ccnc(-c4nc(C(F)(F)F)c[nH]4)c3)ccc21,369,508,469
C=C[C@H]1CN2CCC1C[C@@H]2[C@@H](O)c1ccnc2ccccc12 (some centres not stated),455,522,486
Clc1ccccc1CN1CCc2sccc2C1,510,617,543
O=c1oc2cc(O)ccc2s1,502,482,503
CNc1nc(C)nc(N[C@H]2CCC[C@@H](C(=O)NCc3ccc(C#N)cc3C(F)(F)F)C2)n1,497,593,496
CCCN(CCC)C(=O)C(CCC(=O)O)NC(=O)c1ccccc1 (configuration not stated),504,570,524
C=C1C(=O)OC(CCCCCCCC)C1C(=O)O (configuration not stated),409,457,437
COc1cc2ncnc(Nc3ccc(F)c(Cl)c3)c2cc1OCCCN1CCOCC1,562,624,594
CC(C)(CNC(=O)c1cccc(-c2noc(C(F)(F)F)n2)c1)c1coc(-c2ccccc2)n1,558,585,506
CCN1\C=C(\C(O)=O)C(=O)C2=C1C=C(N3CCNCC3)C(=C2)F,356,397,393
O=C1NC(=O)/C(=C\c2ccc(-c3ccc(F)cc3)o2)S1,471,572,522

# Reference: the supplement of paper PMC10949913
